According to US20120219615A1, “Therapeutic Use of a TLR Agonist and Combination Therapy” (The Trustees of the University of Pennsylvania, priority 2010, published 2012):

Experiments:
Assay type in all cases: cell-based
TLR8 = biological target: T1, TLR8 (Homo sapiens, UniProt Q9NR97); assay: TNFα production in PBMCs (marker of TLR8 activation)
T1 construct: assessed in peripheral blood mononuclear cells (PBMCs) from 15 healthy donors; endogenous in cells; host or cells: PBMCs from 15 healthy donors
T1 sequence (Q9NR97 27-1041): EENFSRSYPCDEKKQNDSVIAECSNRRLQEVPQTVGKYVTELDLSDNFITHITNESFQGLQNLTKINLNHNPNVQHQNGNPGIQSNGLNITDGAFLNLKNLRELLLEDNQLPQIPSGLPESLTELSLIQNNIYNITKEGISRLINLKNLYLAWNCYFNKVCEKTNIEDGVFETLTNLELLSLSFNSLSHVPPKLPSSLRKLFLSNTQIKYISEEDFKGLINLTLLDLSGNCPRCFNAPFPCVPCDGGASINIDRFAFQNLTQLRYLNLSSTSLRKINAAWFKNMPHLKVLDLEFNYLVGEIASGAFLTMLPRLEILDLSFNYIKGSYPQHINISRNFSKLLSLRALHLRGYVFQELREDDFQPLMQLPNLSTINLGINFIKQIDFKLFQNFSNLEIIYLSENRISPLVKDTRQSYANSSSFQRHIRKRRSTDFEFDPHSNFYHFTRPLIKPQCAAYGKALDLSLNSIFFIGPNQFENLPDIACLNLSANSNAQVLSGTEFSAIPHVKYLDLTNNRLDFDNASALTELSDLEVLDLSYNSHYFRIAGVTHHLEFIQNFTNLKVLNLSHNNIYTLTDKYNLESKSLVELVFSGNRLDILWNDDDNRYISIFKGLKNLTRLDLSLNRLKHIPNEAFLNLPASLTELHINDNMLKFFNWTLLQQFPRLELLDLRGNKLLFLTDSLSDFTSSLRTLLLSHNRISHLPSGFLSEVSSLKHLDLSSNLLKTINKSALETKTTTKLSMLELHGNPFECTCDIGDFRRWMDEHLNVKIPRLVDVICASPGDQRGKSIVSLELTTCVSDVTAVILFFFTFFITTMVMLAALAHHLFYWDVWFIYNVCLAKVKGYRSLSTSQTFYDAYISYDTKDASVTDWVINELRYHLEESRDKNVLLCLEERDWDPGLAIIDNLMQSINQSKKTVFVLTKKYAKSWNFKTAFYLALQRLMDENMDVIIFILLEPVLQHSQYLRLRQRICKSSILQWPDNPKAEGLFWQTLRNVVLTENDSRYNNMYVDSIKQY
Method: (§1) The half-maximal effective concentration (EC50) for VTX-2337 activation of TLR8 and TLR7 was assessed in peripheral blood mononuclear cells (PBMCs) from 15 healthy donors and also in HEK293 cells transfected with TLR8 or TLR7 and an NF-κB driven reporter gene. […] Also it was observed that VTX-2337 had no activity on TLR2, TLR3, TLR4, TLR5, TLR6, or TLR9 at concentrations up to 25 μM.

TLR5 = TLR5 (Homo sapiens, UniProt O60602); assay: Activity on TLR5; conditions: concentrations up to 25 μM
Method: as §1

TLR9 = biological target: T2, TLR9 (Homo sapiens, UniProt Q9NR96); assay: Activity on TLR9; conditions: concentrations up to 25 μM
T2 sequence (Q9NR96 26-1032): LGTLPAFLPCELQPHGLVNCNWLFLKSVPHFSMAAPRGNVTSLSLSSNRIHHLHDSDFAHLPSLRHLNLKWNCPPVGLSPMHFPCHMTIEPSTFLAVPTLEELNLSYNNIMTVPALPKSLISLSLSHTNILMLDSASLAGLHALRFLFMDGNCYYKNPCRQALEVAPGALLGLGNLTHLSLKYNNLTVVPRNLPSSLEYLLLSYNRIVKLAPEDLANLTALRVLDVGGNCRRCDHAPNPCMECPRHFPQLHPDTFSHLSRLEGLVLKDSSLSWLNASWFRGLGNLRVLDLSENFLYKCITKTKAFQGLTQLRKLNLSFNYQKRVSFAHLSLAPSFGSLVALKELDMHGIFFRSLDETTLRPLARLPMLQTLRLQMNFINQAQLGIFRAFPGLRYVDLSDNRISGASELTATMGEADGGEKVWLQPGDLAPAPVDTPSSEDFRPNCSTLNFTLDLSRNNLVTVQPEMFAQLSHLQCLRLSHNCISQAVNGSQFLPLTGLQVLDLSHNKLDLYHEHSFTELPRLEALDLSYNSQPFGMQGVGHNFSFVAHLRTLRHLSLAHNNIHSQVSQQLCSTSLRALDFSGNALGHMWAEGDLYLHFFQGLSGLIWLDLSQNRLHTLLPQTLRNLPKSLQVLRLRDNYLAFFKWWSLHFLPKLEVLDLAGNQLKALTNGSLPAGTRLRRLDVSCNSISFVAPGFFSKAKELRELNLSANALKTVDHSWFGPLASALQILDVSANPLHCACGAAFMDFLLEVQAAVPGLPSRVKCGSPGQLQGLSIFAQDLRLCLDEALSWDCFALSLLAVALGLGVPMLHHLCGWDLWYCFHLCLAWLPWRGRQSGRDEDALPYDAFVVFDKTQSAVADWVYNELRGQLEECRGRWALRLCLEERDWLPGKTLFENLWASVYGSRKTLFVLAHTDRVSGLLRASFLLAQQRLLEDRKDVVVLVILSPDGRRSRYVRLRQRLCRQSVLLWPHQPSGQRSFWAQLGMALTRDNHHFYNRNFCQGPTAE
Method: as §1

TLR5, sequence (O60602 21-858, species assumed): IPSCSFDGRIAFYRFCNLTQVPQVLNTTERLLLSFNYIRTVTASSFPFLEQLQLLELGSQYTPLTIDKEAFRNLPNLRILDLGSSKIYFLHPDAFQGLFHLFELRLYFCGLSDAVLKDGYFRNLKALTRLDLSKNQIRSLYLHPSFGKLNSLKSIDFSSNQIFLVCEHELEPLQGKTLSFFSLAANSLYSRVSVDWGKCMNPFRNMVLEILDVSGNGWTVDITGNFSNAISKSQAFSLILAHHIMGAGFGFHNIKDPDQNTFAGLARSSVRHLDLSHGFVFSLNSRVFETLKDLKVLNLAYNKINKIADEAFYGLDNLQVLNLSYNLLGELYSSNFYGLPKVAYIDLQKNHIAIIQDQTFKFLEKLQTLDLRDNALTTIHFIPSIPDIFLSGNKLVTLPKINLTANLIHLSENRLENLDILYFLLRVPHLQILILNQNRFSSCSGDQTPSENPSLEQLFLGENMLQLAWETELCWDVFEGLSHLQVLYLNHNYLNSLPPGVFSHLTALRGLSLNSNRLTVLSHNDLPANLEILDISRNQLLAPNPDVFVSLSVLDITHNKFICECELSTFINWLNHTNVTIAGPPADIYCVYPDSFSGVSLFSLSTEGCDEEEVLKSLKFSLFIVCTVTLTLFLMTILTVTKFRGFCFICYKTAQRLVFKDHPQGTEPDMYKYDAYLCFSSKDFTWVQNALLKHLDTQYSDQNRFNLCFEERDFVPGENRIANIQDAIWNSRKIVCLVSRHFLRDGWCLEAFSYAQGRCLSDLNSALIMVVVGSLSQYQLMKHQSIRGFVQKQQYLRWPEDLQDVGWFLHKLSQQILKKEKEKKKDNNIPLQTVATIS

EC50 (TLR8; PBMCs from 15 healthy donors): 74 nM | selectivity for TLR8 relative to TLR7 (TLR8; PBMCs, TNFα vs IFNα EC50): > 45 fold | activity on TLR5 (TLR5): no activity | activity on TLR9 (TLR9): no activity
SMILES: CCCN(CCC)C(=O)C1=Cc2ccc(-c3ccc(C(=O)N4CCCC4)cc3)cc2N=C(N)C1 [VTX-2337, 2-amino-N,N-dipropyl-8-(4-(pyrrolidine-1-carbonyl)phenyl)-3H-benzo[b]azepine-4-carboxamide]
